From patent US7547691B2, “[4-(Benzo[B]thiophen-2-yl) Pyrimidin-2-yl]-amine derivatives as IKK-beta inhibitors for the treatment of cancer and inflammatory diseases” (Eli Lilly and Company, priority 2005, dated 2009)
pIC50: −log10 of the molar value. Structures can show the parent of a compound that is named as a salt.

How the values were obtained:
H460 cells = test: Cell Viability Test, H460; format: cell-based; settings: NCI-H460; H460 (human non-small cell lung cancer line); 1 ng/mL TNFα, 0.5% DMSO, 0.5 μg/mL cycloheximide, 48 hours; read-out: Cell Viability Inhibition IC50
Method: (§1) RPMI 8226 cells (ATCC #CCL-155; human multiple myeloma cell line) are grown in RPMI 1640 medium (Gibco #11875-093) supplemented with 10% FBS (fetal bovine serum, Gibco #10082-147), 10 mM HEPES (Gibco #15630-080), 1 mM sodium pyruvate (Gibco #11360-070), and 4.5 mg/mL glucose. HCT116 cells (ATCC #CCL-247; human colon cancer cell line) are grown in McCoy's 5A modified medium (Gibco #16600-082) supplemented with 10% FBS (Gibco #10082-147). H460 cells (ATCC #HTB-177; human non-small cell lung cancer line) are grown in RPMI 1640 (Gibco #11875-093) supplemented with 10% FBS (Gibco #10082-147). […]
(§2) For compound testing, various cancer cells are seeded at 5,000 cells/well in 100 μl corresponding media specified above for each cell line in 96-well plates one day prior to treatment. […] Cell death in each well is determined by the addition of 15 μL of the One Solution Reagent (The CellTiter 96® AQueous One Solution Reagent, Promega #G3580). After 1-2 hours of incubation at 37° C., optical densities at 490 nm are measured with a microplate reader (Molecular Devices SpectraMax). Inhibition of cell viability is determined by comparison to the control cells treated in the absence of a test compound.

HCT116 cells = test: Cell Viability Test, HCT116; format: cell-based; settings: HCT-116; HCT116 (human colon cancer cell line); 1 ng/mL TNFα, 0.5% DMSO, 48 hours; read-out: Cell Viability Inhibition IC50
Method: as §1, §2

RPMI 8226 cells = test: Cell Viability Test, RPMI-8226; format: cell-based; settings: RPMI-8226 (human multiple myeloma cell line); 1 ng/mL TNFα, 0.5% DMSO, 48 hours; read-out: Cell Viability Inhibition IC50
Method: as §1, §2

IKKbeta = biological target: T1, IKKbeta (Homo sapiens, UniProt O14920); test: IKK-beta Kinase Assay; format: biochemical; settings: purified IKKβ 4 nM, 20 μM IKB peptide, 10 μM ATP, 90 minutes; absolute IC50; read-out: Enzyme Inhibition IC50
T1 sequence (O14920 1-756): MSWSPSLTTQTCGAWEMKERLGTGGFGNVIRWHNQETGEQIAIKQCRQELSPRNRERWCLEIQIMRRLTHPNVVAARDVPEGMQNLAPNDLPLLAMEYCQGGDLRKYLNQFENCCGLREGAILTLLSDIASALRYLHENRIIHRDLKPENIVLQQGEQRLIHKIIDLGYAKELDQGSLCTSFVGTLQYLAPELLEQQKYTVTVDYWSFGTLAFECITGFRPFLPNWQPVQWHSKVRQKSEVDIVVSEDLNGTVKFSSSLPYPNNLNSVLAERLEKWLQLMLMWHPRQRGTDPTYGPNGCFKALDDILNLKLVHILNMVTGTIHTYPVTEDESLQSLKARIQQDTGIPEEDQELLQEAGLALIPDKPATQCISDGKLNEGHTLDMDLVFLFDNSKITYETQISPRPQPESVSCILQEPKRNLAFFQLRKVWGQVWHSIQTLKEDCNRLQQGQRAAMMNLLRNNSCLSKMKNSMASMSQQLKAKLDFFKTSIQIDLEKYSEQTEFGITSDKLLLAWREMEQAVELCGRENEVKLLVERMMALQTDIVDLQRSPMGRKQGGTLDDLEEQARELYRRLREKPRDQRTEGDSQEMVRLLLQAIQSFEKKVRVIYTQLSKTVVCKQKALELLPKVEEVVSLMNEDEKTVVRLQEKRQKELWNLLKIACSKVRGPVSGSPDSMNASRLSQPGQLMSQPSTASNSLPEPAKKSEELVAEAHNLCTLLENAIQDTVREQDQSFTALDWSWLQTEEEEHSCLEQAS
Method: The kinase activity of purified IKKβ is measured in vitro using a synthetic IKB peptide fragment (-[…]-) derived from IKB protein as a substrate. All reactions (30 μL) are started by the addition of the IKKb enzyme (final concentration: 4 nM) and then incubated at room temperature for 90 minutes in the reaction mix containing 20 μM IKB peptide, 10 μM ATP, 5 mM MgCl2, 50 mM Tris-HCl pH 7.5, 3 mM DTT, 4% DMSO, 1 mM Sodium Orthovandate, 0.5 mM β-glycerophosphate, 0.01% Triton X-100, 4 μCi γ-^33p-ATP/reaction. Reactions are terminated by addition of 30 μL 10% phosphoric acid, and the terminated reaction mix is filtered through a phosphocellulose membrane to remove unused γ-^33P-ATP. After four washes with 0.5% phosphoric acid, radio-labeled products bound to the filter are counted using a microbeta counter. All exemplified compounds are initially tested at 10 concentrations (20 μM down to 1 nM) using a 1:3 serial dilution scheme on the Beckman Tecan serial diluter. Calculation is done using a software package from IDBS (Activity Base) where an absolute IC50 value (non-linear regression) is calculated. Example 20 is specifically detailed below.

A2780 cells = test: Cell Viability Test, A2780; format: cell-based; settings: A2780 (human ovarian carcinoma); 1 ng/mL TNFα, 0.5% DMSO, 48 hours; read-out: Cell Viability Inhibition IC50
Method: as §1, §2

U87MG cells = test: Cell Viability Test, U87MG; format: cell-based; settings: U-87 MG; U87MG (human glioblastoma cell line); 1 ng/mL TNFα, 0.5% DMSO, 48 hours; read-out: Cell Viability Inhibition IC50
Method: as §1, §2

pIC50 (H460 cells): 5.05
pIC50 (HCT116 cells): 4.72
pIC50 (RPMI 8226 cells): 5.66
pIC50 (IKKbeta): 7.34
pIC50 (A2780 cells): 4.93
pIC50 (U87MG cells): 4.65
SMILES: CN1CCN(CCCNc2ncc(Cl)c(-c3cc4c(C(=O)NC5CC5)cccc4s3)n2)CC1 [Example 20, 2-{5-Chloro-2-[3-(4-methylpiperazin-1-yl)-propylamino]-pyrimidin-4-yl}-benzo[b]thiophene-4-carboxylic acid cyclopropylamide tri-hydrochloride]
